# Patent USRE48461E1, “Modulation of androgen receptor expression” (Ionis Pharmaceuticals, Inc., priority 2012, dated 2021)
# Legend:
# [1] = cynomolgus monkey, in vivo, sc, 40 mg/kg
# Experimental: (§1) Prior to the study, the monkeys were kept in quarantine for a 30-day period, during which the animals were observed daily for general health. The monkeys were 2-4 years old and weighed between 2 and 4 kg. Thirteen groups of four randomly assigned male cynomolgus monkeys each were injected subcutaneously with ISIS oligonucleotide or PBS. PBS solution or ISIS oligonucleotides, at a dose of 40 mg/kg, were administered with a loading regimen consisting of four doses on the first week of the study (days 1, 3, 5, and 7), followed by a maintenance regimen consisting of once weekly administration starting on Day 14 (weeks 2 to 6). Subcutaneous injections were performed in clock-wise rotations at 4 sites on the back; one site per dose. The injection sites were delineated by tattoo, while sedated using ketamine, and were separated by a minimum of 3 cm.
# To evaluate any effect of ISIS oligonucleotides in cynomolgus monkeys on hematologic parameters, blood samples of approximately 0.5 mL of blood was collected day 44 from each of the available study animals in tubes containing K2-EDTA. Samples were analyzed for red blood cell (RBC) count, white blood cells (WBC) count, platelet count, hemoglobin content and hematocrit, using an ADVIA2120i hematology analyzer (SIEMENS, USA).
# [2] = cynomolgus monkey, in vivo
# Experimental: as §1
# The concentrations of the full-length oligonucleotide in the kidney and the liver of select treatment groups were measured. The method used is a modification of previously published methods (Leeds et al., 1996; Geary et al., 1999) which consist of a phenol-chloroform (liquid-liquid) extraction followed by a solid phase extraction.
Sequence,HCT [1],Hemoglobin [1],Platelets [1],RBC [1],WBC [1],"Oligonucleotide concentration, Kidney ([2]; sc, 40 mg/kg)","Oligonucleotide concentration, Liver ([2]; sc, 40 mg/kg)",K/L ratio [2]
"TGATTTAATGGTTGCA [ISIS 569236] (cEt/MOE gapmer chemistry, further chemistry not given here)",44%,13.1 g/dL,358000 µL,5.7e+06 µL,14400 µL,1282 μg/g tissue,898 μg/g tissue,
"TTGATTTAATGGTTGC [ISIS 560131] (MOE and (S)-cEt gapmer chemistry, further chemistry not given here)",44%,13.1 g/dL,392000 µL,5.8e+06 µL,11300 µL,,793 μg/g tissue,2.6
